In patent publication EP4635969A1, “NOVEL GLUCOCORTICOID, METHOD FOR PREPARING SAME, AND USE THEREOF” (Tianjin Pharmaceutical Biotechnology Co., Ltd., priority 2022, dated 2024):
Read-outs that look alike come from different tables or passages of the source.

How the values were obtained:
Type in all cases: cell-based
[1] = target: T1, progesterone receptor (PR) (Homo sapiens, UniProt P06401); test: Assay for agonist activity on progesterone receptor (luciferase reporter, HEK293 cells transfected with pBIND-PR plasmid); details: for EC50: EC50 of agonist activity, HEK293 reporter cells, top concentration 50 µM, read-out: Nuclear receptor enzyme activity (nM) PR; for Target selectivity PR/GR: ratio of EC50 values
T1 sequence (P06401 678-933): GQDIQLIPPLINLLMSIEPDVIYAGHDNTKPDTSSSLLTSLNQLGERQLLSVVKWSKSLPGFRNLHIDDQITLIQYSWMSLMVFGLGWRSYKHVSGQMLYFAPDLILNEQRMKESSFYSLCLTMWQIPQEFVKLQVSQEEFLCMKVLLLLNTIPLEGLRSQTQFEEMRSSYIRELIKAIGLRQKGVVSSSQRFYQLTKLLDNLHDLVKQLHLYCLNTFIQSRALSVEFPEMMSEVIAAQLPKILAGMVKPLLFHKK
Protocol: (§1) Pharmacological Example 2: Assay for Agonist Activity on Mineralocorticoid Receptor (MR) and Progesterone Receptor (PR)
(§2) Test compound stock solutions: The test compounds (compounds 4, 5, 7, 8, 9, 11, 13, 16, 17, 18, 22, 23, 24, 34, 35, 36, 38, 41, 45, 47, 53, 55, and 59) were accurately weighed, dissolved in DMSO to prepare stock solutions at a concentration of 20 mM, and stored at -20 °C.
(§3) The test compounds were subjected to a 4-fold serial dilution starting from an initial concentration of 50 µ M, generating a 12-point concentration gradient with duplicate wells for each concentration. The blank control consisted of 0.1% DMSO.
(§4) The HEK293 stable cell lines […] transfected with mineralocorticoid receptor (MR) and progesterone receptor (PR) (ICE Bioscience, Lot No. TYP-20220819, TPJ-20220812) were cultured in Dulbecco's Modified Eagle Medium (DMEM) supplemented with 10% fetal bovine serum (FBS) and 200 µ g/ml Hygromycin B in a cell incubator containing 5% CO2 at 37 °C. The spent medium was aspirated, and the cells were washed once with phosphate-buffered saline (PBS). Then, 1 mL of TrypLE™ Express solution was added, and the cells were incubated at 37 °C for approximately 2 min. When the cells detached from the bottom of the cell culture dish, approximately 5 mL of pre-warmed complete medium at 37 °C was added. The cell suspension was gently pipetted with a pipette to dissociate clumped cells. The cell suspension was transferred to a sterile centrifuge tube and centrifuged at 1000 rpm for 5 min to pellet the cells for experiments or subculture..
(§5) HEK293 cells were digested and seeded into 6-cm culture dishes. The pBIND-MR and pBIND-PR plasmids were separately transfected into the HEK293 cells using a transfection reagent, resulting in HEK293 cells successfully transfected with the pBIND-MR and pBIND-PR plasmids, respectively. The cells were resuspended in phenol red-free DMEM medium containing 5% charcoal-stripped serum, counted, and then seeded into 96-well plates. The test compounds were added, and the plates were then incubated in an incubator. The luminescence signal values were measured using a multimode microplate reader following the instructions of the luciferase assay kit. The EC50 values of each test compound were calculated using the nonlinear fitting formula with GraphPad Prism 8.0 software.

[2] = target: T2, mineralocorticoid receptor (MR) (Homo sapiens, UniProt P08235); test: Assay for agonist activity on mineralocorticoid receptor (luciferase reporter, HEK293 cells transfected with pBIND-MR plasmid); details: for EC50: EC50 of agonist activity, HEK293 reporter cells, top concentration 50 µM, read-out: Nuclear receptor enzyme activity (nM) MR; for Target selectivity MR/GR: ratio of EC50 values
T2 sequence (P08235 726-984): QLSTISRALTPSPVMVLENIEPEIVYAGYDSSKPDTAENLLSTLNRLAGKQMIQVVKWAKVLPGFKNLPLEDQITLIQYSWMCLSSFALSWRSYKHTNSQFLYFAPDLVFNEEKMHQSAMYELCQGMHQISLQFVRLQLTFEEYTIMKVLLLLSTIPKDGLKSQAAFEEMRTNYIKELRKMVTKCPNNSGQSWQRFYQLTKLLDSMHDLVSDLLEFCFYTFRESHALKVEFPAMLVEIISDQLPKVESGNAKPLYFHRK
Protocol: as §1, §2, §3, §4, §5

[3] = target: T3, glucocorticoid receptor (GR) (Homo sapiens, UniProt P04150); test: Assay for agonist activity on glucocorticoid receptor (luciferase reporter, HEK293 cells transfected with pBIND-GR plasmid)
T3 sequence (P04150 521-777): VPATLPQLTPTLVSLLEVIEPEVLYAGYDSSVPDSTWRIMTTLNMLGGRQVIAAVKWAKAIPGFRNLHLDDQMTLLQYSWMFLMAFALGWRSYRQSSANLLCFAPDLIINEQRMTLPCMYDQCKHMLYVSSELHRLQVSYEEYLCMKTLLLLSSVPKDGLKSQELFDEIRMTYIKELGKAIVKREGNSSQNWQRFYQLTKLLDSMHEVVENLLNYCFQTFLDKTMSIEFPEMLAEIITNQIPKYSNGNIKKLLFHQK
Protocol: Pharmacological Example 1: Assay for Agonist Activity on Glucocorticoid Receptor (GR)
The test compounds were subjected to a 4-fold serial dilution starting from an initial concentration of 10 µ M, generating a 10-point concentration gradient with duplicate wells for each concentration. The blank control consisted of 0.1 % DMSO.
as §4, with “line” for “lines”, “glucocorticoid” for “mineralocorticoid”, “(GR)” for “(MR) and progesterone receptor (PR)”, “TYP-20220519) was” for “TYP-20220819, TPJ-20220812) were”, “aspirated” for “aspirated,”, “subculture.” for “subculture..”
as §5, with “pBIND-GR plasmid was” for “pBIND-MR and pBIND-PR plasmids were separately”, “pBIND-GR plasmid.” for “pBIND-MR and pBIND-PR plasmids, respectively.”

[4] = EC50 of agonist activity, HEK293 reporter cells, read-out: Nuclear receptor enzyme activity (nM) GR
[5] = HEK293 cells transfected with pBIND-GR, luciferase signal, read-out: GR agonist EC50

Structure (SMILES) | EC50 [1] [nM] | Target selectivity PR/GR [1] | EC50 [2] [nM] | Target selectivity MR/GR [2] | EC50 [3, 4] [nM] | EC50 [3, 5] [nM]
C[C@]12C=CC(=O)C=C1[C@@H](F)C[C@H]1[C@@H]3C[C@H]4OC(C5CCN(C(=O)C6COC(=O)C6)CC5)O[C@@]4(C(=O)SCF)[C@@]3(C)C[C@H](O)[C@@]12F (stereo partly drawn) [Compound 4, S-(Fluoromethyl) (2S,6aS,6bR,7S,8aS,8bS,11aR,12aS,12bS)-2,6b-difluoro-7-hydroxy-6a,8a-dimethyl-4-oxo-10-(1-(5-oxotetrahydrofuran-3-carbonyl)piperidin-4-yl)-1,2,4,6a,6b,7,8,8a,11a,12,12a,12b-dodecahydro-8bH-naphtho[2',1':4,5]indeno[1,2-d][1,3]dioxole-8b-carbothioate] | > 50000 | > 4223 | > 50000 | > 4223 | 11.8 | 11.8
C[C@]12C=CC(=O)C=C1[C@@H](F)C[C@H]1[C@@H]3C[C@H]4OC(c5ccc(NC(=O)C6COC(=O)C6)cc5)O[C@@]4(C(=O)SCF)[C@@]3(C)C[C@H](O)[C@@]12F (stereo partly drawn) [Compound 5, S-(Fluoromethyl) (2S,6aS,6bR,7S,8aS,8bS,11aR,12aS,12bS)-2,6b-difluoro-7-hydroxy-6a,8a-dimethyl-4-oxo-10-(4-(5-oxotetrahydrofuran-3-carboxamido)phenyl)-1,2,4,6a,6b,7,8,8a,11a,12,12a,12b-dodecahydro-8b H-naphtho[2',1':4,5]indeno[1,2-d][1,3]dioxole-8b-carbothioate] | > 50000 | > 9560 | > 50000 | > 9560 | 5.23 | 5.23
C[C@]12C=CC(=O)C=C1[C@@H](F)C[C@H]1[C@@H]3C[C@H]4OC(c5ccc(COC6CCOC6=O)cc5F)O[C@@]4(C(=O)CO)[C@@]3(C)C[C@H](O)[C@@]12F (stereo partly drawn) [Compound 7, (2S,6aS,6bR,7S,8aS,8bS,11aR,12aS,12bS)-2,6b-Difluoro-10-(2-fluoro-4-(((2-oxotetrahydrofuran-3-yl)oxy)methyl)phenyl)-7-hydroxy-8b-(2-hydroxyacetyl)-6a,8a-dimethyl-1,2,6a,6b,7,8,8a,8b,11a, 12,12a,12b-dodecahydro-4H-naphtho[2',1':4,5]indeno[1,2-d][1,3]dioxol-4-one] | > 50000 | > 4.1×10^4 | > 50000 | > 4.1×10^4 | 1.21 | 1.21
C[C@]12C=CC(=O)C=C1[C@@H](F)C[C@H]1[C@@H]3C[C@H]4OC(c5ccc(CNC6CCOC6=O)cc5)O[C@@]4(C(=O)CO)[C@@]3(C)C[C@H](O)[C@@]12F (stereo partly drawn) [Compound 9, (2S,6aS,6bR,7S,8aS,8bS,11aR,12aS,12bS)-2,6b-Difluoro-7-hydroxy-8b-(2-hydroxyacetyl)-6a,8a-dimethyl-10-(4-(((2-oxotetrahydrofuran-3-yl)amino)methyl)phenyl)-1,2,6a,6b,7,8,8a,8b,11a,12,12 a,12b-dodecahydro-4H-naphtho[2',1':4,5]indeno[1,2-d][1,3]dioxol-4-one] | > 50000 | > 1.5×10^4 | > 50000 | > 1.5×10^4 | 3.27 | 3.27
C[C@]12C=CC(=O)C=C1[C@@H](F)C[C@H]1[C@@H]3C[C@H]4OC(c5ccc(OCC6CCOC6=O)cc5)O[C@@]4(C(=O)CO)[C@@]3(C)C[C@H](O)[C@@]12F (stereo partly drawn) [Compound 13, (2S,6aS,6bR,7S,8aS,8bS,11aR,12aS,12bS)-2,6b-Difluoro-7-hydroxy-8b-(2-hydroxyacetyl)-6a,8a-dimethyl-10-(4-((2-oxotetrahydrofuran-3-yl)methoxy)phenyl)-1,2,6a,6b,7,8,8a,8b,11a,12,12a,12b-dodecahydro-4H-naphtho[2',1':4,5]indeno[1,2-d][1,3]dioxol-4-one] | > 50000 | > 1.4×10^4 | > 50000 | > 1.4×10^4 | 3.43 | 3.43
C[C@]12C=CC(=O)C=C1CC[C@H]1[C@@H]3C[C@H]4OC(c5ccc(C[S+]([O-])C6CCOC6=O)cc5)O[C@@]4(C(=O)CO)[C@@]3(C)C[C@H](O)[C@@]12Cl (stereo partly drawn) [Compound 57, (6aS,6bR,7S,8aS,8bS,11aR,12aS,12bS)-6b-Chloro-7-hydroxy-8b-(2-hydroxyacetyl)-6a,8a-dimethyl-10-(4-(((2-oxotetrahydrofuran-3-yl)sulfinyl)methyl)phenyl)-1,2,6a,6b,7,8,8a,8b,11a,12,12a,12b-dodecahydro-4H-naphtho[2',1':4,5]indeno[1,2-d][1,3]dioxol-4-one] |  |  |  |  |  | 0.86
C[C@]12C=CC(=O)C=C1[C@@H](F)C[C@H]1[C@@H]3C[C@H]4OC(c5ccc(CS(=O)(=O)C6CCOC6=O)cc5)O[C@@]4(C(=O)CO)[C@@]3(C)C[C@H](O)[C@@]12F (stereo partly drawn) [Compound 58, (2S,6aS,6bR,7S,8aS,8bS,11aR,12aS,12bS)-2,6b-Difluoro-7-hydroxy-8b-(2-hydroxyacetyl)-6a,8a-dimethyl-10-(4-(((2-oxotetrahydrofuran-3-yl)sulfonyl)methyl)phenyl)-1,2,6a,6b,7,8,8a,8b,11a,12, 12a,12b-dodecahydro-4H-naphtho[2',1':4,5]indeno[1,2-d][1,3]dioxol-4-one] |  |  |  |  |  | 3.67
C[C@]12C=CC(=O)C=C1CC[C@H]1[C@@H]3C[C@H]4OC(c5ccc(CS(=O)(=O)C6CCOC6=O)cc5)O[C@@]4(C(=O)CO)[C@@]3(C)C[C@H](O)[C@@]12Cl (stereo partly drawn) [Compound 60, (6aS,6bR,7S,8aS,8bS,11aR,12aS,12bS)-6b-Chloro-7-hydroxy-8b-(2-hydroxyacetyl)-6a,8a-dimethyl-10-(4-(((2-oxotetrahydrofuran-3-yl)sulfonyl)methyl)phenyl)-1,2,6a,6b,7,8,8a,8b,11a,12,12a,12b-dodecahydro-4H-naphtho[2',1':4,5]indeno[1,2-d][1,3]dioxol-4-one] |  |  |  |  |  | 3.5
